From US12384770B2, “Heterocyclic compound” (Takeda Pharmaceutical Company Limited, priority 2019, dated 2025)

Molecular target: T1, HDAC6 enzyme (Homo sapiens, UniProt Q9UBN7)
T1 construct: HDAC6 enzyme prepared by transducing full length HDAC6 gene into Sf-9 insect cells; GST; purchased SignalChem; host or cells: Sf-9 insect cells
T1 sequence (Q9UBN7 1-1215): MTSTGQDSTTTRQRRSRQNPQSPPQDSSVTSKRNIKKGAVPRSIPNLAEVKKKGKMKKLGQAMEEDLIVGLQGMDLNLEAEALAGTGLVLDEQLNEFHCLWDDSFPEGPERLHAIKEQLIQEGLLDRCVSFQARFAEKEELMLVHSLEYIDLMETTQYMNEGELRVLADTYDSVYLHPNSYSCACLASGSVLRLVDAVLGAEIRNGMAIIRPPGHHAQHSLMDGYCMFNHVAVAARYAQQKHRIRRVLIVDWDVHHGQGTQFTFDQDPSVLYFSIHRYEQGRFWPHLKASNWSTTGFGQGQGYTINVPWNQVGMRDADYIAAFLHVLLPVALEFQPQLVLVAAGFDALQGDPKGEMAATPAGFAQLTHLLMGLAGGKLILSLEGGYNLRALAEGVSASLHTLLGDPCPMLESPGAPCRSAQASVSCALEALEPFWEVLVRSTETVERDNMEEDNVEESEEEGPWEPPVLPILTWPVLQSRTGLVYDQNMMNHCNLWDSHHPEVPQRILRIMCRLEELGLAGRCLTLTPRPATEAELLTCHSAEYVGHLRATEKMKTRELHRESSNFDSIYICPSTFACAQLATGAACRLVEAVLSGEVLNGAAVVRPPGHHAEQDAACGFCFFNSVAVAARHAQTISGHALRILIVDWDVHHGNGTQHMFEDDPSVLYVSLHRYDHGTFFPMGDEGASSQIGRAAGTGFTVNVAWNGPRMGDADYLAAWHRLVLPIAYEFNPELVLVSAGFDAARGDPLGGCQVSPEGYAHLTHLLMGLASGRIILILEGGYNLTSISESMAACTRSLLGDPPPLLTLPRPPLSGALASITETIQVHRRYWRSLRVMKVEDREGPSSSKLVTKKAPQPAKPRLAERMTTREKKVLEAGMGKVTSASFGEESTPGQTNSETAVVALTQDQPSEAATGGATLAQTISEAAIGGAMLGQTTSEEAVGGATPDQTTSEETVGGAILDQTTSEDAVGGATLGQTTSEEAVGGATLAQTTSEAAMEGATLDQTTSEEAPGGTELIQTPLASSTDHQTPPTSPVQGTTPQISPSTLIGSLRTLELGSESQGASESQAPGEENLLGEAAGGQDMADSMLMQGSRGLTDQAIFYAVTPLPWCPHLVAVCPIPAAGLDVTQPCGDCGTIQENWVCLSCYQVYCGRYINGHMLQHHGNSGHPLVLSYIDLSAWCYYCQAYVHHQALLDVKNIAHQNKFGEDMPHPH
Test: HDAC6 enzyme inhibitory assay (HDAC-Glo I/II Assay kit)
Format: biochemical
Conditions: wells without enzyme = 100% inhibition; for inhibition at 10 µM: read-out: HDAC6 inhibitory rate (%) (10 μM)
How it was run: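 Full-length GST-purified HDAC6 from Sf-9 cells preincubated with compound 60 min at room temperature in Tris-HCl pH 7.5 buffer with MgCl2, KCl, NaCl, glutathione, Tween-20. Substrate-developer reaction 20 min, luminescence read; no-enzyme wells set as 100% inhibition.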

SMILES | inhibition at 10 µM | other results
O=C1c2cc(-c3nnc(C(F)F)o3)ccc2CN1[C@H](C1CCOCC1)[C@@H](O)c1cccc(Cl)c1 (single isomer, unassigned) [Example 70, 2-[(1R*,2S*)-2-(3-chlorophenyl)-2-hydroxy-1-(oxan-4-yl)ethyl]-6-[5-(difluoromethyl)-1,3,4-oxadiazol-2-yl]-2,3-dihydro-1H-isoindol-1-one] | 101% | 
O=C1c2cc(-c3nnc(C(F)F)o3)ccc2CN1[C@H](C1CCOCC1)[C@@H](O)c1cccc(Cl)c1 (single isomer, unassigned) [Example 71, 2-[(1R*,2S*)-2-(3-chlorophenyl)-2-hydroxy-1-(oxan-4-yl)ethyl]-6-[5-(difluoromethyl)-1,3,4-oxadiazol-2-yl]-2,3-dihydro-1H-isoindol-1-one] |  | HDAC6 inhibitory rate (%) (10 μM): 101%
O=C1c2cc(-c3nnc(C(F)F)o3)ccc2CN1[C@H](C1CC1)[C@@H](O)c1ncccn1 (single isomer, unassigned) [Example 73, 2-[(1R*,2R*)-1-cyclopropyl-2-hydroxy-2-(pyrimidin-2-yl)ethyl]-6-[5-(difluoromethyl)-1,3,4-oxadiazol-2-yl]-2,3-dihydro-1H-isoindol-1-one] | 100% | 
O=C1c2cc(-c3nnc(C(F)F)o3)ccc2CN1[C@H](C1CC1)[C@@H](O)c1ncccn1 (single isomer, unassigned) [Example 74, 2-[(1R*,2R*)-1-cyclopropyl-2-hydroxy-2-(pyrimidin-2-yl)ethyl]-6-[5-(difluoromethyl)-1,3,4-oxadiazol-2-yl]-2,3-dihydro-1H-isoindol-1-one] |  | HDAC6 inhibitory rate (%) (10 μM) (10 µM): 96%
O=C1c2cc(-c3nnc(C(F)F)o3)ccc2CN1[C@H](c1cccc(F)n1)[C@@H](O)c1ccccn1 (single isomer, unassigned) [Example 75, 6-[5-(difluoromethyl)-1,3,4-oxadiazol-2-yl]-2-[(1R*,2R*)-1-(6-fluoropyridin-2-yl)-2-hydroxy-2-(pyridin-2-yl)ethyl]-2,3-dihydro-1H-isoindol-1-one] | 99% | 
O=C1c2cc(-c3nnc(C(F)F)o3)ccc2CN1[C@H](c1cccc(F)n1)[C@@H](O)c1ccccn1 (single isomer, unassigned) [Example 76, 6-[5-(difluoromethyl)-1,3,4-oxadiazol-2-yl]-2-[(1R*,2R*)-1-(6-fluoropyridin-2-yl)-2-hydroxy-2-(pyridin-2-yl)ethyl]-2,3-dihydro-1H-isoindol-1-one] |  | HDAC6 inhibitory rate (%) (10 μM) (10 µM): 100%
O=C1c2cc(-c3nnc(C(F)F)o3)ccc2CN1[C@H](C1CC1)[C@@H](O)c1ccc(C(F)(F)F)nc1 (single isomer, unassigned) [Example 77, 2-{(1R*,2S*)-1-cyclopropyl-2-hydroxy-2-[6-(trifluoromethyl)pyridin-3-yl]ethyl}-6-[5-(difluoromethyl)-1,3,4-oxadiazol-2-yl]-2,3-dihydro-1H-isoindol-1-one] | 100% | 
O=C1c2cc(-c3nnc(C(F)F)o3)ccc2CN1[C@H](C1CC1)[C@@H](O)c1cccc(F)n1 (single isomer, unassigned) [Example 79, 2-[(1R*,2R*)-1-cyclopropyl-2-(6-fluoropyridin-2-yl)-2-hydroxyethyl]-6-[5-(difluoromethyl)-1,3,4-oxadiazol-2-yl]-2,3-dihydro-1H-isoindol-1-one] | 99% | 
O=C1c2cc(-c3nnc(C(F)F)o3)ccc2CN1[C@H](C1CC1)[C@@H](O)c1cccc(F)n1 (single isomer, unassigned) [Example 80, 2-[(1R*,2R*)-1-cyclopropyl-2-(6-fluoropyridin-2-yl)-2-hydroxyethyl]-6-[5-(difluoromethyl)-1,3,4-oxadiazol-2-yl]-2,3-dihydro-1H-isoindol-1-one] |  | HDAC6 inhibitory rate (%) (10 μM) (10 µM): 100%
O=C1c2cc(-c3nnc(C(F)F)o3)ccc2CN1[C@H](C1CCOCC1)[C@@H](O)c1ccc(Cl)cc1 (single isomer, unassigned) [Example 83, 2-[(1R*,2S*)-2-(4-chlorophenyl)-2-hydroxy-1-(oxan-4-yl)ethyl]-6-[5-(difluoromethyl)-1,3,4-oxadiazol-2-yl]-2,3-dihydro-1H-isoindol-1-one] | 101% | 
O=C1c2cc(-c3nnc(C(F)F)o3)ccc2CN1[C@H](C1CCOCC1)[C@@H](O)c1ccc(Cl)cc1 (single isomer, unassigned) [Example 84, 2-[(1R*,2S*)-2-(4-chlorophenyl)-2-hydroxy-1-(oxan-4-yl)ethyl]-6-[5-(difluoromethyl)-1,3,4-oxadiazol-2-yl]-2,3-dihydro-1H-isoindol-1-one] |  | HDAC6 inhibitory rate (%) (10 μM) (10 µM): 100%
O=C1c2cc(-c3nnc(C(F)F)o3)ccc2CN1[C@H](c1cnccn1)[C@@H](O)c1ccc(F)c(F)c1 (single isomer, unassigned) [Example 85, 6-[5-(difluoromethyl)-1,3,4-oxadiazol-2-yl]-2-[(1R*,2S*)-2-(3,4-difluorophenyl)-2-hydroxy-1-(pyrazin-2-yl)ethyl]-2,3-dihydro-1H-isoindol-1-one] | 100% | 
O=C1c2cc(-c3nnc(C(F)F)o3)ccc2CN1[C@H](c1cnccn1)[C@@H](O)c1ccc(F)c(F)c1 (single isomer, unassigned) [Example 86, 6-[5-(difluoromethyl)-1,3,4-oxadiazol-2-yl]-2-[(1R*,2S*)-2-(3,4-difluorophenyl)-2-hydroxy-1-(pyrazin-2-yl)ethyl]-2,3-dihydro-1H-isoindol-1-one] |  | HDAC6 inhibitory rate (%) (10 μM): 100%
O=C1c2cc(-c3nnc(C(F)F)o3)ccc2CN1[C@H](C1CCOCC1)[C@@H](O)c1ccc(F)c(F)c1 (single isomer, unassigned) [Example 87, 6-[5-(difluoromethyl)-1,3,4-oxadiazol-2-yl]-2-[(1R*,2S*)-2-(3,4-difluorophenyl)-2-hydroxy-1-(oxan-4-yl)ethyl]-2,3-dihydro-1H-isoindol-1-one] | 100% | 
O=C1c2cc(-c3nnc(C(F)F)o3)ccc2CN1[C@H](C1CCOCC1)[C@@H](O)c1ccc(F)c(F)c1 (single isomer, unassigned) [Example 88, 6-[5-(difluoromethyl)-1,3,4-oxadiazol-2-yl]-2-[(1R*,2S*)-2-(3,4-difluorophenyl)-2-hydroxy-1-(oxan-4-yl)ethyl]-2,3-dihydro-1H-isoindol-1-one] |  | HDAC6 inhibitory rate (%) (10 μM) (10 µM): 99%
O=C1c2cc(-c3nnc(C(F)F)o3)ccc2CN1[C@H](c1cccc(F)n1)[C@@H](O)c1cccc(F)c1 (single isomer, unassigned) [Example 89, 6-[5-(difluoromethyl)-1,3,4-oxadiazol-2-yl]-2-[(1R*,2S*)-2-(3-fluorophenyl)-1-(6-fluoropyridin-2-yl)-2-hydroxyethyl]-2,3-dihydro-1H-isoindol-1-one] | 100% | 
O=C1c2cc(-c3nnc(C(F)F)o3)ccc2CN1[C@H](c1cccc(F)n1)[C@@H](O)c1cccc(F)c1 (single isomer, unassigned) [Example 90, 6-[5-(difluoromethyl)-1,3,4-oxadiazol-2-yl]-2-[(1R*,2S*)-2-(3-fluorophenyl)-1-(6-fluoropyridin-2-yl)-2-hydroxyethyl]-2,3-dihydro-1H-isoindol-1-one] |  | HDAC6 inhibitory rate (%) (10 μM): 100%
O=C1c2cc(-c3nnc(C(F)F)o3)ccc2CN1[C@H](c1cnccn1)[C@@H](O)c1cccc(Cl)c1 (single isomer, unassigned) [Example 91, 2-[(1R*,2S*)-2-(3-chlorophenyl)-2-hydroxy-1-(pyrazin-2-yl)ethyl]-6-[5-(difluoromethyl)-1,3,4-oxadiazol-2-yl]-2,3-dihydro-1H-isoindol-1-one] | 100% | 
